{
  "source": "patent US6417327B1",
  "about": "“Peptide capable of regulating physiological function of FGF-5 and pharmaceutical composition containing the peptide” (Agency of Industrial Science and Technology, priority 1999, dated 2002)",
  "key": {"[1]": {"tested_on": "FGF-5", "test": "Determination of DNA-synthesis-inhibiting activity (uptake of tritium, 3HTdR) in the presence of recombinant FGF-5", "type": "cell-based, mouse", "details": "Balb/c3T3 cells, test solution FGF-5(+) with heparin 5 μg/ml, recombinant FGF-5 10^-10 M, peptide 10^-7 to 10^-3 M", "method": "(§1) Balb/c3T3 cells (1.5×10^4 cells/500 μl) were plated on a 24-well culture plate and cultured in a DMEM medium for 24 hours in the presence o f 10% FCS. After washing the cells with the medium, a DMEM medium containing 0.3% FCS was added thereto to further culture the cells for 24 hours to synchronize the cells. To the mixture, test solutions [FGF-5(+)] containing heparin (5 μg/ml), one of FGF-5 peptides 1-5 synthesized in Example 1 (10^−7 to 10^−3 M) and the recombinant FGF-5 prepared in Reference Example 1 (10^−10 M) were added. After 16 hours of cultivation, 3 HTdR was added, and the cells were further cultured for 4 hours in a CO2 incubator. The supernatants were aspirated. The cells were washed with PBS, added with 10% TCA (125 μl), and incubated at room temperature. After confirming the immobilization of the cells, the supernatants were discarded. Five-hundred ul of 0.5N NaOH was added and the mixture was further incubated at room temperature for an hour, added with 3 ml scintillator and determined for the uptake of tritium into the cells with a liquid scintillation counter.\nAs controls for the determinations of inhibiting and promoting activities, a test solution containing heparin (5 μg/ml) and the recombinant FGF-5 (10^−10 M) prepared in Reference Example 1 was used."}, "[2]": {"tested_on": "Balb/c3T3 cells", "test": "Determination of DNA-synthesis-promoting activity (uptake of tritium, 3HTdR) without FGF-5", "type": "cell-based", "details": "test solution FGF-5(-) with heparin, peptide 10^-7 to 10^-3 M, without the addition of FGF-5", "method": "as §1\nThe uptake of tritium into cells was determined as described in (1) above with a liquid scintillation counter except that test solutions [FGF-5(−)] containing heparin and one of FGF-5 peptides 1-5 synthesized in Example 1 were used. […]"}, "[3]": {"tested_on": "mouse bone marrow cells", "test": "Differentiating and proliferating activities to give megakaryocytes (increase of acetylcholineesterase activity)", "type": "cell-based", "details": "cultured 4 days, acetylcholineesterase activity by fluorescence", "method": "The differentiating and proliferating activities to give megakaryocytes were determined for this peptide, as the increase of acetylcholineesterase activity, by using mouse bone marrow cells as follows.\nBone marrow cells were taken from femur of ICR mouse (male, 6 weeks old), suspended in RPMI 1640 medium containing 1% fetal calf serum (FCS), and centrifuged. The supernatant was removed and the resultant was suspended in RPMI 1640 medium containing 0.5 mM DFP (diisopropylfluorophosphate) and 0.1% BSA (bovine serum albumin), and left to stand at room temperature for 20 min. Thereafter, the cells were washed with the same culture twice and suspended in RPMI 1640 medium containing 1% Neutridoma-SP and 0.1% BSA such that the number of cells was 2×10^6 cells/ml. The thus-prepared bone marrow cell suspension was dispensed in 100 μl into a 96-well culture plate, and cultured with a test solution containing 50 μl of FGF-5 peptide 6 at 37° C. for 4 days in the presence of 5% CO2.\nThereafter, the supernatant was removed, and the resultant was washed with PBS(−) twice and added with 180 μl 50 mM HEPES buffer (pH 7.6) containing 0.2% (w/v) Triton X-100 and 0.12 M NaCl and with 20 ul solution containing 5.6 mM acetylthiocholine iodide. […]"}, "[4]": {"tested_on": "platelets", "test": "Determination of thrombocytosis activity (number of platelets)", "type": "in vivo", "details": "ICR mice, intraperitoneal; for increase of platelet: 1 μg/kg", "method": "ICR mice (male, 6 weeks old, weights 29-32 g) were grouped into 4 groups of six mice. A test solution containing the above-mentioned FGF-5 peptide 6 was intraperitoneally administered for 10 successive days.\nThe peptide (3.3 mg/ml) in an injection solution (0.9% saline containing 100 μg/ml bovine serum albumin (Fraction V)) was administered to the mice at 0.3 ml/mouse (33 mg/kg) At the same time, human recombinant thrombopoietin solution (0.1 μg/ml) and human recombinant interleukin 6 solution (0.1 μg/ml) were prepared, and intraperitoneally administered for 0.3 ml per mouse (1 μg/kg). Five μl of blood was collected from the caudal vein of each mouse, and immediately mixed with 20 μl of 3.8% sodium citrate in a test tube. Subsequently, the blood mixtures were serially diluted twice with Cellpack and determined for the number of platelets, as well as to determine the numbers of erythrocytes and hemacrit values with Sysmex F-820 (TOA Electronics Ltd.)"}},
  "note": "No end group written: not given here.",
  "data": [
    {"substance": "Gln Val His Arg (QVHR; SEQ ID NO3 represents a partial sequence (corresponding to amino acids 120-123) of the amino acid sequence of human FGF-5S.) [FGF-5 peptide 5]", "values": [
      {"measurement": "DNA-synthesis-inhibiting activity", "setting": "[1]", "result": "inhibited DNA synthesis"}
    ]},
    {"substance": "HEANMLS [FGF-5 peptide 3]", "values": [
      {"measurement": "DNA-synthesis-promoting activity", "setting": "[2]", "result": "promoted DNA synthesis"}
    ]},
    {"substance": "HEANMLSQVHR [FGF-5 peptide 4]", "values": [
      {"measurement": "DNA-synthesis-inhibiting activity", "setting": "[1]", "result": "inhibited DNA synthesis"}
    ]},
    {"substance": "PDGKVNGSHEANM [FGF-5 peptide 6]", "values": [
      {"measurement": "differentiating and proliferating activities to give megakaryocytes", "setting": "[3]", "result": "exerts differentiating and proliferating activities to give megakaryocytes"},
      {"measurement": "increase of the numbers of platelets", "setting": "[4]; 33 mg/kg, 10 successive days, two to 4 days after the administration", "result": 1.6, "unit": "folds"}
    ]},
    {"substance": "Pro Asp Gly Lys Val Asn Gly Ser His Glu Ala Asn Met Leu Ser GIn Val His Arg (PDGKVNGSHEANMLSQVHR; SEQ ID NO10 represents a partial sequence of the amino acid sequence of human FGF-5.) [FGF-5 peptide 1]", "values": [
      {"measurement": "DNA-synthesis-promoting activity", "setting": "[2]", "result": "promoted DNA synthesis"}
    ]},
    {"substance": "human recombinant interleukin 6: human recombinant interleukin 6 solution (0.1 μg/ml), comparator in the platelet test", "values": [
      {"measurement": "increase of platelet", "setting": "[4]", "result": "about 1.6 fold"}
    ]},
    {"substance": "human recombinant thrombopoietin: human recombinant thrombopoietin solution (0.1 μg/ml), comparator in the platelet test", "values": [
      {"measurement": "increase of platelet", "setting": "[4]", "result": "about 1.6 fold"}
    ]}
  ]
}
